{"source": "paper PMC2865576", "about": "(Journal of medicinal chemistry, 2010)", "key": {"[1]": {"system": "intracellular T. gondii tachyzoites in HFF monolayers", "assay": "Replication assay", "format": "cell-based, Toxoplasma gondii", "settings": "for Replication inhibition, result in words: added 2 h after inoculation, 24-26 h; for Parasite doublings per vacuole, dose-response experiment: separate experiments, authors' unpublished results [37]; for inhibition at 10 µM: Toxoplasma gondii, read-out: Inhibition of parasite replication"}, "[2]": {"system": "tachyzoites of T.gondii strain 2F", "assay": "Five day growth inhibition assay", "format": "cell-based, Toxoplasma gondii", "settings": "HFF cells"}, "[3]": {"system": "human foreskin fibroblast (HFF) host cells", "format": "cell-based", "settings": "5 days"}}, "note": "Entries after “also recorded” stand apart in the source; their conditions may differ. Marks after values point to notes of the source that are not given here.", "data": [{"compound": "CO[C@H]1O[C@@H]2O[C@@]3(C)CC[C@H]4[C@H](C)CC[C@@H]([C@H]1C)[C@@]24OO3", "note": "[Artemether, reference compound]", "values": [{"measurement": "Replication inhibition, result in words", "setting": "[1]; 10 μM", "result": "only modest inhibition"}]}, {"compound": "C[C@@H]1CC[C@H]2[C@@H](C)C(=O)O[C@@H]3O[C@@]4(C)CC[C@@H]1[C@]32OO4", "note": "[Artemisinin, reference compound]", "values": [{"measurement": "Replication inhibition, result in words", "setting": "[1]; 10 μM", "result": "no measurable activity"}]}, {"compound": "CC1=C(c2nc(C)cs2)O[C@@H]2O[C@@]3(C)CC[C@H]4[C@H](C)CC[C@@H]1[C@@]24OO3", "note": "[Compound 2]", "values": [{"measurement": "Parasite doublings per vacuole, dose-response experiment", "setting": "[1]; 1 μM", "result": 2, "unit": "doubling"}, {"measurement": "Parasite doublings per vacuole, dose-response experiment", "setting": "[1]; 5 μM", "result": 1, "unit": "doubling"}, {"measurement": "Parasite doublings per vacuole, dose-response experiment", "setting": "[1]; 10 μM", "result": 1, "unit": "doubling"}]}, {"compound": "CC1=C(c2nc(C)c(C)s2)O[C@@H]2O[C@@]3(C)CC[C@H]4[C@H](C)CC[C@@H]1[C@@]24OO3", "note": "[Compound 3]", "values": [{"measurement": "Parasite doublings per vacuole, dose-response experiment", "setting": "[1]; 1 μM", "result": 1, "unit": "doubling"}, {"measurement": "Parasite doublings per vacuole, dose-response experiment", "setting": "[1]; 5 μM", "result": 1, "unit": "doubling"}, {"measurement": "Parasite doublings per vacuole, dose-response experiment", "setting": "[1]; 10 μM", "result": 1, "unit": "doubling"}]}, {"compound": "CC1=C(c2ncc(C)s2)O[C@@H]2O[C@@]3(C)CC[C@H]4[C@H](C)CC[C@@H]1[C@@]24OO3", "note": "[Compound 4]", "values": [{"measurement": "Parasite doublings per vacuole, dose-response experiment", "setting": "[1]; 1 μM", "result": 2, "unit": "doubling"}, {"measurement": "Parasite doublings per vacuole, dose-response experiment", "setting": "[1]; 5 μM", "result": 1, "unit": "doubling"}, {"measurement": "Parasite doublings per vacuole, dose-response experiment", "setting": "[1]; 10 μM", "result": 1, "unit": "doubling"}]}, {"compound": "CC1=C(c2nc(-c3ccccc3)cs2)O[C@@H]2O[C@@]3(C)CC[C@H]4[C@H](C)CC[C@@H]1[C@@]24OO3", "note": "[Compound 5]", "values": [{"measurement": "Parasite doublings per vacuole, dose-response experiment", "setting": "[1]; 1 μM", "result": 1, "unit": "doubling"}, {"measurement": "Parasite doublings per vacuole, dose-response experiment", "setting": "[1]; 5 μM", "result": 1, "unit": "doubling"}, {"measurement": "Parasite doublings per vacuole, dose-response experiment", "setting": "[1]; 10 μM", "result": 0.5, "unit": "doubling"}]}, {"compound": "CC1=C(c2nc(C3CCCCC3)cs2)O[C@@H]2O[C@@]3(C)CC[C@H]4[C@H](C)CC[C@@H]1[C@@]24OO3", "note": "[Compound 8]", "values": [{"measurement": "Growth inhibition, result in words", "setting": "[2]", "result": "ineffective"}, {"measurement": "Replication inhibition, result in words", "setting": "[1]; 10 μM", "result": "only weakly inhibited replication"}]}, {"compound": "CSc1ccc(-c2csc(C3=C(C)[C@@H]4CC[C@@H](C)[C@@H]5CC[C@@]6(C)OO[C@@]45[C@H](O3)O6)n2)cc1", "note": "[Compound 11]", "values": [{"measurement": "Replication inhibition, result in words", "setting": "[1]; 10 μM", "result": "completely inhibited replication"}]}, {"compound": "CC1=C(c2nc(-c3ccc(S(C)(=O)=O)cc3)cs2)O[C@@H]2O[C@@]3(C)CC[C@H]4[C@H](C)CC[C@@H]1[C@@]24OO3", "note": "[Compound 12]", "values": [{"measurement": "inhibition at 10 µM", "setting": "[1]", "result": 75, "unit": "%"}]}, {"compound": "CC1=C(c2nc(C)no2)O[C@@H]2O[C@@]3(C)CC[C@H]4[C@H](C)CC[C@@H]1[C@@]24OO3", "note": "[Compound 13]", "values": [{"measurement": "inhibition at 10 µM", "setting": "[1]", "result": 50, "unit": "%"}]}, {"compound": "CC1=C(c2nc(-c3ccccc3)no2)O[C@@H]2O[C@@]3(C)CC[C@H]4[C@H](C)CC[C@@H]1[C@@]24OO3", "note": "[Compound 14]", "values": [{"measurement": "Parasite doublings per vacuole, dose-response experiment", "setting": "[1]; 1 μM", "result": 1, "unit": "doubling"}, {"measurement": "Parasite doublings per vacuole, dose-response experiment", "setting": "[1]; 5 μM", "result": 1, "unit": "doubling"}, {"measurement": "Replication inhibition, result in words", "setting": "[1]; 10 μM", "result": "effectively inhibited replication"}, {"measurement": "Parasite doublings per vacuole, dose-response experiment", "setting": "[1]; 10 μM", "result": 0.5, "unit": "doubling"}, {"measurement": "inhibition at 10 µM", "setting": "[1]", "result": 75, "unit": "%"}]}, {"compound": "CCNC(=O)C1=C(C)[C@@H]2CC[C@@H](C)[C@@H]3CC[C@@]4(C)OO[C@@]23[C@H](O1)O4", "note": "[Compound 15]", "values": [{"measurement": "inhibition at 10 µM", "setting": "[1]", "result": 50, "unit": "%"}]}, {"compound": "CCN(CC)C(=O)C1=C(C)[C@@H]2CC[C@@H](C)[C@@H]3CC[C@@]4(C)OO[C@@]23[C@H](O1)O4", "note": "[Compound 16]", "values": [{"measurement": "Growth inhibition, result in words", "setting": "[2]", "result": "ineffective; also recorded: activity is lost"}]}, {"compound": "CC1=C(C(=O)NCc2ccccc2)O[C@@H]2O[C@@]3(C)CC[C@H]4[C@H](C)CC[C@@H]1[C@@]24OO3", "note": "[Compound 18]", "values": [{"measurement": "inhibition at 10 µM", "setting": "[1]", "result": 50, "unit": "%"}]}, {"compound": "CC1=C(C(=O)NCc2ccc(F)cc2)O[C@@H]2O[C@@]3(C)CC[C@H]4[C@H](C)CC[C@@H]1[C@@]24OO3", "note": "[Compound 20]", "values": [{"measurement": "Replication inhibition, result in words", "setting": "[1]; 10 μM", "result": "effectively inhibited replication"}, {"measurement": "inhibition at 10 µM", "setting": "[1]", "result": 75, "unit": "%"}]}, {"compound": "CC1=C(C(=O)NCc2ccc(C)cc2)O[C@@H]2O[C@@]3(C)CC[C@H]4[C@H](C)CC[C@@H]1[C@@]24OO3", "note": "[Compound 21]", "values": [{"measurement": "inhibition at 10 µM", "setting": "[1]", "result": 50, "unit": "%"}]}, {"compound": "CC1=C(C(=O)NCc2ccc(C(F)(F)F)cc2)O[C@@H]2O[C@@]3(C)CC[C@H]4[C@H](C)CC[C@@H]1[C@@]24OO3", "note": "[Compound 22]", "values": [{"measurement": "Replication inhibition, result in words", "setting": "[1]; 10 μM", "result": "effectively inhibited replication"}, {"measurement": "inhibition at 10 µM", "setting": "[1]", "result": 75, "unit": "%"}]}, {"compound": "CC1=C(C(=O)NCc2ccc(F)c(F)c2)O[C@@H]2O[C@@]3(C)CC[C@H]4[C@H](C)CC[C@@H]1[C@@]24OO3", "note": "[Compound 23]", "values": [{"measurement": "inhibition at 10 µM", "setting": "[1]", "result": 50, "unit": "%"}]}, {"compound": "CC1=C(C(=O)NCc2cc(F)cc(F)c2)O[C@@H]2O[C@@]3(C)CC[C@H]4[C@H](C)CC[C@@H]1[C@@]24OO3", "note": "[Compound 24]", "values": [{"measurement": "Growth inhibition, result in words", "setting": "[2]", "result": "potent parasite inhibition"}, {"measurement": "inhibition at 10 µM", "setting": "[1]", "result": 50, "unit": "%"}]}, {"compound": "CC1=C(C(=O)NCc2cc(Br)cc(Br)c2)O[C@@H]2O[C@@]3(C)CC[C@H]4[C@H](C)CC[C@@H]1[C@@]24OO3", "note": "[Compound 25]", "values": [{"measurement": "Growth inhibition, result in words", "setting": "[2]", "result": "potent parasite inhibition"}, {"measurement": "Replication inhibition, result in words", "setting": "[1]; 10 μM", "result": "completely inhibited replication; also recorded: effectively inhibited replication"}]}, {"compound": "COc1cc(Cc2cnc(N)nc2N)cc(OC)c1OC", "note": "[Trimethoprim]", "values": [{"measurement": "TD50, median cytotoxic dose", "setting": "[3]", "result": "≥320 ^b μM"}]}]}
